Laboratory results published in US20250121025A1, “SCALP-DERIVED PEPTIDES ALLEVIATING HAIR LOSS SYMPTOMS” (NEWTREE CO., LTD, priority 2023, published 2025).

What was measured:
HaCaT cells = assay: Cell viability (CCK-8) in human keratinocytes; format: cell-based
Protocol: (§1) In order to evaluate the efficacy of peptide treatment (RKLW and RQLW) to promote skin cell proliferation, human keratinocytes and dermal papilla (DP) cells were treated with RKLW and RQLW at 0.1, 1, and 10 μM. After being cultured for 24 and 48 hours, cells were treated with Cell Counting Kit-8 (CCK-8) to measure cell viability, and the results are shown in FIG. 3.

[1] = system: dermal papilla (DP) cells; assay: Cell viability (CCK-8) in dermal papilla cells; format: cell-based, human
Protocol: as §1

[2] = system: androgen receptor (AR) and its target proteins (DKK-1 and TGF-β); assay: Western blot of AR and its target proteins in HaCaT cells; format: cell-based, human; details: 0.1, 1, 10 μM, 24 hours
Protocol: (§2) The expression and phosphorylation of protein markers involved in alopecia-related signal transduction pathways were evaluated after treatment with peptides (RKLW and RQLW).
(§3) DHT-AR and Wnt/beta-catenin pathway: An androgen receptor (AR) is a protein that binds to dihydrotestosterone (DHT), a representative inducer of androgenetic alopecia, and when the AR is activated by binding to DHT, Dickkopf-1 (DKK-1) and transforming growth factor beta (TGF-β) are expressed and promote alopecia. In addition, DKK-1, which is expressed by the activation of the AR, suppresses the Wnt signaling pathway involved in the development and growth of hair follicles, and TGF-β induces alopecia by suppressing the growth of hair follicle cells.
(§4) Specifically, the expressions of proteins involved in major signaling pathways related to hair growth were analyzed when HaCaT and DP cells were treated with RKLW and RQLW at 0.1, 1, and 10 μM and cultured for 24 hours.
(§5) The protein immunoblot (Western blot) results of the expression of the AR and its target proteins (DKK-1 and TGF-β) in HaCaT and DP cells are shown in FIG. 5. […] When DP cells were treated with RKLW or RQLW, the expression levels of both the AR and its target protein TGF-β was reduced.

[3] = system: androgen receptor (AR) and its target proteins (DKK-1 and TGF-β); assay: Western blot of AR and its target proteins in DP cells; format: cell-based, human; details: 0.1, 1, 10 μM, 24 hours
Protocol: as §2, §3, §4, §5

[4] = system: Wnt signaling pathway proteins (p-GSK-3β and β-catenin); assay: Western blot of Wnt signaling pathway proteins in HaCaT cells; format: cell-based, human; details: 0.1, 1, 10 μM, 24 hours
Protocol: as §4
(§6) Furthermore, the protein immunoblot (Western blot) results showing differential expressions and phosphorylation of proteins involved in Wnt signaling pathway in HaCaT and DP cells are shown in FIG. 6. […] When DP cells were treated with RKLW or RQLW, the expression of p-GSK-3β was not increased, but the expression of β-catenin was increased, meaning that in DP cells, RKLW or RQLW accumulates β-catenin through a pathway other than GSK-3β to activate Wnt signaling.

[5] = system: Wnt signaling pathway proteins (p-GSK-3β and β-catenin); assay: Western blot of Wnt signaling pathway proteins in DP cells; format: cell-based, human; details: 0.1, 1, 10 μM, 24 hours
Protocol: as §4, §6

[6] = system: mitochondrial apoptosis signaling pathway proteins (Bax, Bcl-2, Caspase-3, and PARP); assay: Western blot of mitochondrial apoptosis signaling proteins in HaCaT cells; format: cell-based, human; details: 0.1, 1, 10 μM, 24 hours
Protocol: (§7) Mitochondrial apoptosis: Bax is a pro-apoptotic protein that promotes apoptosis, and Bcl-2 is a pro-survival protein that suppresses apoptosis; the balance between these two proteins is important in regulating apoptosis.
(§8) Specifically, the expressions of proteins involved in mitochondrial apoptotic signaling pathways were analyzed when HaCaT and DP cells were treated with RKLW and RQLW at 0.1, 1, and 10 μM and cultured for 24 hours, and the results are shown in FIG. 7.

[7] = system: mitochondrial apoptosis signaling pathway proteins (Bax, Bcl-2, Caspase-3, and PARP); assay: Western blot of mitochondrial apoptosis signaling proteins in DP cells; format: cell-based, human; details: 0.1, 1, 10 μM, 24 hours
Protocol: as §7, §8

[8] = system: cell cycle marker proteins (Cyclin D1, CDK4, Cyclin E1, and CDK2); assay: Western blot of cell cycle marker proteins in HaCaT cells; format: cell-based, human; details: 0.1, 1, 10 μM, 24 hours
Protocol: (§9) Cell cycle: maintaining the G1 phase of the cell cycle of scalp skin cells plays an important role in maintaining scalp health.
(§10) Specifically, the expressions of Cyclin D/CDK4 and Cyclin E/CDK2, which activate the G1 phase, were analyzed when HaCaT and DP cells were treated with RKLW and RQLW at 0.1, 1, and 10 µM and cultured for 24 hours, and the results are shown in FIG. 8.

[9] = system: cell cycle marker proteins (Cyclin D1, CDK4, Cyclin E1, and CDK2); assay: Western blot of cell cycle marker proteins in DP cells; format: cell-based, human; details: 0.1, 1, 10 μM, 24 hours
Protocol: as §9, §10

Row | Substance | cell viability of dermal papilla cells ([1]; 1 and 10 μM, 24 hours) | AR expression [2] | expression level of DKK-1 [2] | expression level of TGF-β [2] | expression level of AR [3] | expression level of TGF-β [3] | expression level of p-GSK-3β [4] | expression level of β-catenin [4] | expression of p-GSK-3β [5] | expression of β-catenin [5] | effect of suppressing apoptosis [6] | expression ratio of Bax/Bcl-2 [7] | expression level of Cyclin D/CDK4 [8] | expression level of Cyclin E/CDK2 [8] | expression level of Cyclin D/CDK4 [9] | expression level of Cyclin E/CDK2 [9] | further results
1 | RKLW (listed as Homo sapiens) | significantly increased cell viability | no significant change | decreased | decreased | reduced | reduced | increased | increased | not increased | increased | relatively insignificant effect | unable to regulate | increased | increased | increased | did not affect | cell viability of HaCaT cells (HaCaT cells; 24 and 48 hours, CCK-8): did not show statistical significance; treatment concentration at which cell viability was significantly increased ([1]; 48 hours): ≤ 10 µM
2 | RQLW (listed as Homo sapiens) | significantly increased cell viability | no significant change | decreased | decreased | reduced | reduced | increased | increased | not increased | increased | showed an effect of suppressing apoptosis | unable to regulate | increased | increased | increased | did not affect | concentration at which cell viability was significantly increased (HaCaT cells; after 24 hours): ≥ 100 µM; concentration at which cell viability was significantly increased (HaCaT cells; after 48 hours): ≥ 10 µM; cell viability of dermal papilla cells ([1]; 48 hours): no significant difference; expression ratio of Bax/Bcl-2 [6]: tended to decrease; protein level of PARP [6]: tended to decrease; protein level of cleaved caspase-3 [6]: tended to decrease
